Several values for one entry are separate records, joined by “and”; a condition that tells them apart may be missing. Identical values can stand only once. Like-named read-outs stand apart in the source and are kept apart here.
Legend:
[1] = target: T1, rat GPR14 (U-II receptor) (Rattus norvegicus, UniProt P49684); experiment: Rat UII Calcium Mobilization FLIPR Assay; assay type: cell-based; conditions: for inhibition at 10 µM / inhibition at 50 µM: CHO, 5 min, agonist-induced Ca2+ mobilization (FLIPR), CHO cells with rat UII receptor; for inhibition at 10 µM: 10 μM compound, read-out: % I @ 10; for inhibition at 50 µM: 50 μM compound, read-out: % I @ 50
T1 construct: expressed in transfected cells
T1 sequence (P49684 1-386): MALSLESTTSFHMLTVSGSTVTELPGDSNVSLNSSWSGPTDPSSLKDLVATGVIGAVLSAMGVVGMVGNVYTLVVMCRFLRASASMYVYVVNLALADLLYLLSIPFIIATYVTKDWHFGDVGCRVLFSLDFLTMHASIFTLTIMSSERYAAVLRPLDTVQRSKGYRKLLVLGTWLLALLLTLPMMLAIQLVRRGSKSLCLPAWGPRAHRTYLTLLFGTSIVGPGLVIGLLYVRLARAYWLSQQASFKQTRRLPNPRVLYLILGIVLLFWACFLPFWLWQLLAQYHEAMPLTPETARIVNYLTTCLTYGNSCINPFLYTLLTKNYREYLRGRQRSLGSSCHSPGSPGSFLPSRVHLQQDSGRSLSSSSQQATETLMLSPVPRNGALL
Summary of the method: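 CHO cells stably expressing rat U-II receptor, seeded 24 h before assay, were loaded with FLIPR calcium dye in HBSS/20 mM HEPES/0.1% BSA/2.5 mM probenecid, pH 7.4, for 1 h at 37° C. Calcium mobilization then read by FLIPR at 23° C.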

[2] = target: T2, endogenous human UII receptor (Homo sapiens, UniProt Q9UKP6); experiment: Human Radioligand Binding Assay ((^125I)-U-II binding to human skeletal muscle myoblasts)
T2 sequence (Q9UKP6 1-389): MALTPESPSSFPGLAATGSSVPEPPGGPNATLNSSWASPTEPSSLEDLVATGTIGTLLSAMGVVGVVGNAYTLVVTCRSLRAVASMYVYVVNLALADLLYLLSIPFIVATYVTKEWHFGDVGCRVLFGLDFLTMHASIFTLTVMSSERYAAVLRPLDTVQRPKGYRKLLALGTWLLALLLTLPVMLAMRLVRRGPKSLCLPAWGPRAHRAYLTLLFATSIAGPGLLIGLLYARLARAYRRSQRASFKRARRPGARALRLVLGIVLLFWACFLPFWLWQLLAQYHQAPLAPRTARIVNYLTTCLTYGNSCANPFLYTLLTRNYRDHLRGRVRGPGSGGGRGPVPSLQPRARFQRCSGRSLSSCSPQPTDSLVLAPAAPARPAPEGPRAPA

[3] = average value for the compound tested, read-out: Rat UII FLIPR Average IC50
[4] = Inhibition of Acetyl-cyclic[Cys-Phe-Trp-Lys-(2-Nal)-Cys]-NH2 induced Ca2+ mobilization (FLIPR) in CHO cells transfected with rat UII receptor, read-out: IC50
[5] = Inhibition of human UII binding to human skeletal muscle myoblasts containing endogenous human UII receptor

IC50 [1, 3] | Ki [2] | inhibition at 10 µM [1] | inhibition at 50 µM [1] | IC50 [1, 4] | Ki [2, 5] | Compound
1300 nM | > 10000 nM |  |  |  |  | COc1ccc(CN2C(=O)c3cccc(N4CCN(CC5CCCC5)CC4)c3C2=O)cc1OC [Cpd 80, 4-(4-cyclopentylmethyl-piperazin-1-yl)-2-(3,4-dimethoxy-benzyl)-isoindole-1,3-dione]
56 nM | 190 nM |  |  |  |  | COc1ccc([C@@H](CCCNS(=O)(=O)c2cn(C)nc2C(F)(F)F)N2C(=O)c3cccc(N4CCN([C@H](C)c5ccccc5)CC4)c3C2=O)cc1OC [Cpd 135, (R)-1-methyl-3-trifluoromethyl-1H-pyrazole-4-sulfonic acid (4-(3,4-dimethoxy-phenyl)-4-{1,3-dioxo-4-[4-(1R)-(1-phenyl-ethyl)-piperazin-1-yl]-1,3-dihydro-isoindol-2-yl}-butyl)-amide]
 | 5200 nM | 94% | 100% | 1500 nM |  | COc1ccc(CN2C(=O)c3cccc(C4=CCN(Cc5ccccc5)CC4)c3C2=O)cc1OC [Cpd 19, 4-(1-benzyl-1,2,3,6-tetrahydro-pyridin-4-yl)-2-(3,4-dimethoxy-benzyl)-isoindole-1,3-dione]
 | 5500 nM | 75% | 101% | 4200 nM |  | COc1ccc(CN2C(=O)c3cccc(N4CCN(C(C)(C)c5ccccc5)CC4)c3C2=O)cc1OC [Cpd 28, 2-(3,4-dimethoxy-benzyl)-4-[4-(1-methyl-1-phenyl-ethyl)-piperazin-1-yl]-isoindole-1,3-dione]
 |  | 103% | 102% | 200 nM | 200 nM | COc1ccc(C(CCCNC(=O)OC(C)(C)C)N2C(=O)c3cccc(N4CCN([C@H](C)c5ccccc5)CC4)c3C2=O)cc1OC (stereo partly drawn) [Cpd 65, (4-(3,4-dimethoxy-phenyl)-4-{1,3-dioxo-4-[4-(1R)-(1-phenyl-ethyl)-piperazin-1-yl]-1,3-dihydro-isoindol-2-yl}-butyl)-carbamic acid tert-butyl ester]
230 nM | 1600 nM |  |  |  |  | COc1ccc(CN2C(=O)c3cccc(N4CCN(Cc5ccsc5)CC4)c3C2=O)cc1OC [Cpd 83, 2-(3,4-dimethoxy-benzyl)-4-(4-thiophen-3-ylmethyl-piperazin-1-yl)-isoindole-1,3-dione]
 | 1200 nM | 103% | 102% | 160 nM |  | COc1ccc(CN2C(=O)c3cccc(N4CCN(C(C)c5ccccc5)CC4)c3C2=O)cc1OC (stereo not drawn) [Cpd 6, 2-(3,4-dimethoxy-benzyl)-4-[4-(1-phenyl-ethyl)-piperazin-1-yl]-isoindole-1,3-dione]
 |  | 101% | 103% | 70 nM | 310 nM | COc1ccc(C(C)N2C(=O)c3cccc(N4CCN([C@H](C)c5ccccc5)CC4)c3C2=O)cc1OC (stereo partly drawn) [Cpd 2, 2-[1-(3,4-dimethoxy-phenyl)-ethyl]-4-[4-(1R)-(1-phenyl-ethyl)-piperazin-1-yl]-isoindole-1,3-dione]
270 nM | 2600 nM |  |  |  |  | COc1ccc(CN2C(=O)c3cccc(N4CCN(Cc5ccoc5)CC4)c3C2=O)cc1OC [Cpd 78, 2-(3,4-dimethoxy-benzyl)-4-(4-furan-3-ylmethyl-piperazin-1-yl)-isoindole-1,3-dione]
 | 5200 nM | 100% | 100% | 820 nM |  | COc1cc(CN2C(=O)c3cccc(N4CCN([C@H](C)c5ccccc5)CC4)c3C2=O)ccc1O [Cpd 15, 2-(4-hydroxy-3-methoxy-benzyl)-4-[4-(1R)-(1-phenyl-ethyl)-piperazin-1-yl]-isoindole-1,3-dione]
 | 2800 nM | 102% | 102% | 400 nM |  | COc1ccc(C(CN(C)C)N2C(=O)c3cccc(N4CCN([C@H](C)c5ccccc5)CC4)c3C2=O)cc1OC (stereo partly drawn) [Cpd 63, 2-[1-(3,4-dimethoxy-phenyl)-2-dimethylamino-ethyl]-4-[4-(1R)-(1-phenyl-ethyl)-piperazin-1-yl]-isoindole-1,3-dione]
 | 1500 nM | 99% | 99% | 151 nM |  | COc1ccc(CN2C(=O)c3cccc(N4CCN(Cc5ccccc5)CC4)c3C2=O)cc1OC [Cpd 5, 4-(4-benzyl-piperazin-1-yl)-2-(3,4-dimethoxy-benzyl)-isoindole-1,3-dione]
 | 4500 nM |  |  | 2800 nM and 370 nM |  | COc1ccc(CN2C(=O)c3cccc(N4CCN(Cc5ccc(F)cc5)CC4)c3C2=O)cc1OC [Cpd 12, 2-(3,4-dimethoxy-benzyl)-4-[4-(4-fluoro-benzyl)-piperazin-1-yl]-isoindole-1,3-dione]
81 nM | 340 nM |  |  |  |  | COc1ccc([C@@H](CCCNS(=O)(=O)c2ccc(C)s2)N2C(=O)c3cccc(N4CCN([C@H](C)c5ccccc5)CC4)c3C2=O)cc1OC [Cpd 126, (R)-5-methyl-thiophene-2-sulfonic acid (4-(3,4-dimethoxy-phenyl)-4-{1,3-dioxo-4-[4-(1R)-(1-phenyl-ethyl)-piperazin-1-yl]-1,3-dihydro-isoindol-2-yl}-butyl)-amide]
14 nM | 59 nM |  |  |  |  | COc1ccc([C@@H](CCCNS(=O)(=O)C2CCS(=O)(=O)C2)N2C(=O)c3cccc(N4CCN([C@H](C)c5ccccc5)CC4)c3C2=O)cc1OC (stereo partly drawn) [Cpd 133, (R)-1,1-dioxo-tetrahydro-1λ^6-thiophene-3-sulfonic acid (4-(3,4-dimethoxy-phenyl)-4-{1,3-dioxo-4-[4-(1R)-(1-phenyl-ethyl)-piperazin-1-yl]-1,3-dihydro-isoindol-2-yl}-butyl)-amide]
54 nM | > 300 nM |  |  |  |  | COc1ccc([C@@H](CCCNS(=O)(=O)c2sc(NC(C)=O)nc2C)N2C(=O)c3cccc(N4CCN([C@H](C)c5ccccc5)CC4)c3C2=O)cc1OC [Cpd 130, (R)-N-[5-(4-(3,4-dimethoxy-phenyl)-4-{1,3-dioxo-4-[4-(1R)-(1-phenyl-ethyl)-piperazin-1-yl]-1,3-dihydro-isoindol-2-yl}-butylsulfamoyl)-4-methyl-thiazol-2-yl]-acetamide]

Compound | IC50 [1, 3] | Ki [2] | inhibition at 10 µM [1] | inhibition at 50 µM [1] | IC50 [1, 4] | Ki [2, 5]
COc1ccc(C(CN)N2C(=O)c3cccc(N4CCN([C@H](C)c5ccccc5)CC4)c3C2=O)cc1OC (stereo partly drawn) [Cpd 64, 2-[2-amino-1-(3,4-dimethoxy-phenyl)-ethyl]-4-[4-(1R)-(1-phenyl-ethyl)-piperazin-1-yl]-isoindole-1,3-dione] |  | 700 nM | 101% | 98% | 300 nM | 
COc1ccc(C(CCCNS(=O)(=O)c2cccs2)N2C(=O)c3cccc(N4CCN([C@H](C)c5ccccc5)CC4)c3C2=O)cc1OC (stereo partly drawn) [Cpd 68, thiophene-2-sulfonic acid (4-(3,4-dimethoxy-phenyl)-4-{1,3-dioxo-4-[4-(1R)-(1-phenyl-ethyl)-piperazin-1-yl]-1,3-dihydro-isoindol-2-yl}-butyl)-amide] |  |  | 98% | 99% | 100 nM and 80 nM | 76 nM
COc1ccc(C(CCCCNC(=O)OC(C)(C)C)N2C(=O)c3cccc(N4CCN([C@H](C)c5ccccc5)CC4)c3C2=O)cc1OC (stereo partly drawn) [Cpd 69, (5-(3,4-dimethoxy-phenyl)-5-{1,3-dioxo-4-[4-(1R)-(1-phenyl-ethyl)-piperazin-1-yl]-1,3-dihydro-isoindol-2-yl}-pentyl)-carbamic acid tert-butyl ester] |  | > 10000 nM | 11% | 52% | 65000 nM | 
